Measured values published in patent US20020193377A1, “Quinazolines as MMP-13 inhibitors” (priority 2001, published 2002).

Tests used:
[1] = test system: MMP-1, MMP-2, MMP-3, MMP-9 and MMP-13; settings: prior art, non-selective inhibitors; cited from earlier work
[2] = target: T1, human collagenase-3 catalytic domain enzyme (MMP13) (Homo sapiens, UniProt P45452); assay: MMP13CD Thiopeptolide Assay; assay type: biochemical
T1 construct: human collagenase-3 catalytic domain enzyme
Description: MMP13CD Thiopeptolide Assay: Proteolysis of the thiopeptolide substrate Ac-Pro-Leu-Gly-thioester-Leu-Leu-Gly-OEt is used as the primary screen to determine IC50 values for MMP13 inhibitors. A 100 μl reaction contains 50 mM HEPES, 10 mM CaCl2, pH 7.0 (RT), 1 mM 5,5′-dithiobis(2-nitrobenzoic acid) (DTNB), 100 μM substrate, inhibitor in 2.0% DMSO and 2.5 nM human collagenase-3 catalytic domain enzyme. Inhibitors are screened from 100 μM to 0.5 nM. […] Percentage of control velocity in inhibited treatments is plotted against inhibitor concentration to calculate IC50 values.

Which melting point does the source give for Cn1c(=O)n(Cc2ccccc2)c(=O)c2cc(C(=O)OC/C=C/c3ccncc3)ccc21 here?
The melting point was 147 °C.

For Cn1c(=O)n(Cc2ccccc2)c(=O)c2cc(C(=O)OC/C=C/c3cccnc3)ccc21, which melting point is on record?
The melting point was 184 °C.

Which melting point does the source give for COc1ccc(CNC(=O)c2ccc3c(c2)c(=O)n(Cc2ccc(C(=O)OCCN(C)C)c(OC)c2)c(=O)n3C)cc1 here?
The melting point was 130 °C.

With COc1ccc(CNC(=O)c2ccc3c(c2)c(=O)n(Cc2ccc(-c4noc(=O)[nH]4)cc2)c(=O)n3C)cc1 as the compound, how does the melting point read?
The melting point was 305 °C.

For Cn1c(=O)n(Cc2ccc(F)cc2)c(=O)c2cc(C(=O)NCc3cccnc3)ccc21, which melting point is on record?
The melting point was 166 to 168 °C.

For Cn1c(=O)n(Cc2ccc(Cl)cc2)c(=O)c2cc(C(=O)NCc3cccnc3)ccc21, which melting point is on record?
The melting point was 173 to 175 °C.

Which melting point does the source give for COc1cccc(CNC(=O)c2ccc3c(c2)c(=O)n(Cc2ccc(Cl)cc2)c(=O)n3C)c1 here?
The melting point was 178 to 180 °C.

For COc1cc(CNC(=O)c2ccc3c(c2)c(=O)n(Cc2ccc(F)cc2)c(=O)n3C)ccn1, which melting point is on record?
The melting point was 174 to 175 °C.

For COc1ccc(CNC(=O)c2ccc3c(c2)c(=O)n(Cc2ccc(C4(C(=O)OC(C)(C)C)CC4)cc2)c(=O)n3C)cc1, which melting point is on record?
Its melting point is 148 to 149 °C.

Which melting point does the source give for COc1ccc(CNC(=O)c2ccc3c(c2)c(=O)n(Cc2ccc(C4(C(=O)O)CC4)cc2)c(=O)n3C)cc1 here?
The melting point was 179 to 181 °C.

Which melting point does the source give for Cn1c(=O)n(Cc2ccccc2)c(=O)c2cc(SCc3ccccc3)ccc21 here?
The melting point was 117 to 118 °C.

With Cn1c(=O)n(Cc2ccccc2)c(=O)c2cc([S+]([O-])Cc3ccccc3)ccc21 (stereo not shown) as the compound, how does the melting point read?
Its melting point is 182 to 183 °C.

With Cn1c(=O)n(Cc2ccccc2)c(=O)c2cc(S(=O)(=O)Cc3ccccc3)ccc21 as the compound, how does the melting point read?
Its melting point is 173 to 175 °C.

Which “inhibition of several MMPs (in words)” value [1] does the source give for CC1(C)SCCN(S(=O)(=O)c2ccc(Oc3ccncc3)cc2)[C@H]1C(=O)NO [AG-3340] here?
Its value is “inhibit both MMP-1, MMP-2, MMP-3, MMP-9 and MMP-13”.

Which “inhibition of several MMPs (in words)” value [1] does the source give for COc1ccc(S(=O)(=O)N(Cc2cccnc2)[C@@H](C(=O)NO)C(C)C)cc1 [CGS-27.023A] here?
The value was “inhibit both MMP-1, MMP-2, MMP-3, MMP-9 and MMP-13”.

Which IC50 [2] does the source give for O=C(NCc1ccc2c(c1)OCO2)c1ccc2[nH]c(=O)n(Cc3ccc4c(c3)OCO4)c(=O)c2c1 [Example 28, 3-(Benzo[1,3]dioxol-5-ylmethyl)-2,4-dioxo-1,2,3,4-tetrahydroquinazoline-6-carboxylic acid (benzo[1,3]dioxol-5-ylmethyl)amide] here?
The IC50 was 9 nM.

And the melting point?
Its melting point is 245.2 °C.

Which IC50 [2] does the source give for O=C(OCc1ccncc1)c1ccc2[nH]c(=O)n(Cc3ccc4c(c3)OCO4)c(=O)c2c1 [Example 45, 4-Pyridylmethyl3-(benzo[1,3]dioxol-5-ylmethyl)-2,4-dioxo-1,2,3,4-tetrahydroquinazoline6-carboxylate] here?
Its IC50 is 7 nM.

Which IC50 [2] does the source give for O=C(OCc1ccccc1)c1cnc2[nH]c(=O)n(Cc3ccccc3)c(=O)c2c1 [Example 46, Benzyl 3-benzyl-2,4-dioxo-1,2,3,4-tetrahydroprido[2,3-d]pyrimidine-6-carboxylate] here?
Its IC50 is 2.5 nM.

With O=C(OCc1ccncc1)c1cnc2[nH]c(=O)n(Cc3ccccc3)c(=O)c2c1 [Example 47, 4-Pyridylmethyl 3-benzyl-2,4-dioxo-1,2,3,4-tetrahydropyrido[2,3-α]pyrimidine-6-carboxylate] as the compound, how does the IC50 [2] read?
Its IC50 is 1210 nM.

For O=C(NCc1ccc2c(c1)OCO2)c1ccc2[nH]c(=S)n(Cc3ccccc3)c(=O)c2c1 [Example 48, 3-Benzyl-4-oxo-2-thioxo-1,2,3,4-tetrahydroquinazoline-6-carboxylic acid (benzo[1,3]dioxol-5-ylmethyl)amide], which IC50 [2] is on record?
The IC50 was 16 nM.

With Cn1c(=O)n(Cc2ccc(C(=O)O)cc2)c(=O)c2cc(C(=O)NCc3ccc(O)cc3)ccc21 [Example 49, 4-[6-(4-Hydroxy-benzylcarbamoyl)-1-methyl-2,4-dioxo-1,4-dihydro-2H-quinazolin-3-ylmethyl]-benzoic acid] as the compound, how does the IC50 [2] read?
Its IC50 is 7 nM.

For COc1ccc(CNC(=O)c2ccc3c(c2)c(=O)n(Cc2ccc(C(=O)N(C)C)cc2)c(=O)n3C)cc1 [Example 50, 3-(4-Dimethylcarbamoyl-benzyl)-1-methyl-2,4-dioxo-1,2,3,4-tetrahydro quinazoline-6-carboxylic acid 4-methoxy-benzylamide], which IC50 [2] is on record?
The IC50 was 96 nM.

With CNC(=O)c1ccc(Cn2c(=O)c3cc(C(=O)NCc4ccc(OC)cc4)ccc3n(C)c2=O)cc1 [Example 51, 1-Methyl-3-(4-methylcarbamoyl-benzyl)-2,4-dioxo-1,2,3,4-tetrahydro-quinazoline-6-carboxylic acid 4-methoxy-benzylamide] as the compound, how does the IC50 [2] read?
Its IC50 is 62 nM.

With C=CCn1c(=O)c2cc(C(=O)NCc3ccc(OC)cc3)ccc2n(C)c1=O [Example 52, 3-Allyl-1-methyl-2,4-dioxo-1,2,3,4-tethydro-quinazoline-6-carboxylic acid 4-methoxy-benzylamiide] as the compound, how does the IC50 [2] read?
The IC50 was 14 nM.
